Experimental data: patent US20240208907A1, “GPR52 MODULATORS AND METHODS OF USE” (Neurocrine Biosciences, Inc., priority 2021, published 2024)

Molecular target: T1, recombinant human GPR52 (Homo sapiens, UniProt Q9Y2T5)
T1 construct: expressed in transfected cells
Test: GPR52 activity: TR-FRET cAMP assay (LANCE Ultra cAMP Kit)
Type: cell-based
Conditions: Flp-In-CHO cells stably expressing recombinant human GPR52; cAMP production, normalized to positive control
Method: TR-FRET cAMP assays were performed using commercially available assay kits (LANCE™ Ultra cAMP Kit). Controls and compounds were solubilized in DMSO using ½ log dilution to generate duplicate 10-point dose response curves in 384-well polypropylene compound plates. Sixty nanoliters of the diluted compounds were transferred into 384-well NBS assay plates and further diluted to 1× with the addition of 2000 cells per well. Flp-In™-CHO cells that stably express recombinant human GPR52.
Cells were harvested with cell stripper and resuspended in Stimulation Buffer (5 mM HEPES, 0.1% bovine serum albumin (BSA), 0.5 mM IBMX, pH 7.4). After thirty minutes incubation at room temperature, detection reagents were added to each well. Plates were then incubated for 30 minutes at room temperature. The LANCE™ Ultra cAMP assay uses time-resolved fluorescence resonance energy transfer (TR-FRET) to detect cAMP production; this signal was quantified using a Pherastar multi-mode plate reader.
Dose-response curves were generated from the fluorescence counts normalized to the positive control. E EC50 values were obtained using a nonlinear regression curve-fitting program.

T1 sequence (Q9Y2T5 whole entry): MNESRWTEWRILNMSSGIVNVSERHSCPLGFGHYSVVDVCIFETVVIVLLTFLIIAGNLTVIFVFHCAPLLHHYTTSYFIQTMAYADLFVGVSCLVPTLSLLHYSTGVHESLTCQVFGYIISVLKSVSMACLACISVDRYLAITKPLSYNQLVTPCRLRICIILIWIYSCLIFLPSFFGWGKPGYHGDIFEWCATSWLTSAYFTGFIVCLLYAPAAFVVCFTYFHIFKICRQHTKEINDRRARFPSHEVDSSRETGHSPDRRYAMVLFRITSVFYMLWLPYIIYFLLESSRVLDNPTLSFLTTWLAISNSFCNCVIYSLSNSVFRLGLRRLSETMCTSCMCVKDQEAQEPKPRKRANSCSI

| EC50 [nM] | Structure (SMILES) |
| --- | --- |
| < 25 | COc1cc(Cc2ccnc(-c3ccc(C(N)=O)c(C)c3)c2)cc(F)c1F [Compound 4, 4-{4-[(3,4-difluoro-5-methoxyphenyl)methyl]pyridin-2-yl}-2-methylbenzamide] |
| 101 to 1000 | N#Cc1cc(Cc2ccnc(-c3cccc(C(N)=O)c3)c2)cc(F)c1F [Compound 38, 3-{4-[(3-cyano-4,5-difluorophenyl)methyl]pyridin-2-yl}benzamide] |
